The values that follow come from patent US12427192B2, “Water soluble adjuvant and composition containing same” (Sumitomo Pharma Co., Ltd., priority 2019, dated 2025).

This assay deals with HLA-A*02:01 transgenic mouse. In words: Test 18: in vivo adjuvant activity, cocktail vaccine m (liposome formulation 3), IFNγ ELISPOT. As to conditions: added to cocktail vaccine m (liposome formulation 3); 0.4 nmol per body, twice; FIG. 22. The procedure:
Evaluation of In Vivo Adjuvant Activity in HLA-A*02:01 Transgenic Mouse
The in vivo adjuvant activity of the compound of Example 1 was evaluated in the following procedure. To a vaccine (liposome formulation 3) comprising Compound of formula 4 prepared in Reference example 8 and Peptide SEQ ID No. 3 prepared in Reference example 3 (hereinafter, referred to as “cocktail vaccine m”) was added the compound prepared in Example 1 to prepare a vaccine. The vaccine was administered to a HLA-A*02:01 transgenic mouse, and the adjuvant activity of the vaccine was evaluated by the method of testing antigen-specific CTL induction.
For example, the above liposome formulation 3 was prepared as follows. 36.7 mg of 1,2-dipalmitoyl-sn-glycero-3-phosphocholine, 7.58 mg of 1,2-dipalmitoyl-sn-glycero-3-phospho-L-serine sodium salt, and 15.47 mg of cholesterol were dissolved in t-butyl alcohol/water mixture, and the mixture was lyophilized. […]
Cocktail vaccine m was injected to mice intradermally at the tail base area in an amount for administering 500 μg of Compound of formula 4 per body and 375 μg of Peptide SEQ ID No. 3 per body. […] Then, after removal of the supernatant from the wells, stained spots on the ELISPOT plate were counted.

On to `CCCCCNc1nc(N)nc(C)c1Cc1ccc(CN(C)CCOCCOCCOCCOCCO)cc1OC` [Example 1, 1-(4-{[2-amino-4-methyl-6-(pentylamino)pyrimidin-5-yl]methyl}-3-methoxyphenyl)-2-methyl-5,8,11,14-tetraoxa-2-azahexadecan-16-ol·trifluoroacetate], for which the “CTL counts responsive to Peptide SEQ ID No. 1 compared with adding no compound” value is given as “more”.
